Data: US7208154B2, “Methods and compositions for the treatment of MHC-associated conditions” (Regents of the University of Michigan, priority 2002, dated 2007)

How the values were obtained:
calreticulin [1] = experiment: Calreticulin cell surface expression in M1 cells (Western-blot, flow cytometry); format: cell-based, human; settings: 0.2 μM oligonucleotide, 24 to 48 hr, Lipofectin
Protocol: (§1) M1 cells were cultured in 6-well plate to 60–70% confluency. M1 cells were treated by 0.2 μM antisense oligonucleotide for 24 to 48 hr, using Lipofectin as a carrier. Calreticulin expression levels were determined by Western-blot and flow cytometry, using anti-calreticulin antibodies. Polyclonal rabbit anti-human calreticulin antibodies were obtained from ABR, Golden, CO.

calreticulin [2] = target: T1, calreticulin (Homo sapiens, UniProt P27797); experiment: Blocking of shared epitope peptide-triggered signaling (cAMP-inhibitory effect, genoprotection) in M1 cells; format: cell-based; design: endogenous in cells; host or cells: M1 human fibroblastoid cells; settings: M1 cells pre-incubated or transfected
T1 sequence (P27797 18-417): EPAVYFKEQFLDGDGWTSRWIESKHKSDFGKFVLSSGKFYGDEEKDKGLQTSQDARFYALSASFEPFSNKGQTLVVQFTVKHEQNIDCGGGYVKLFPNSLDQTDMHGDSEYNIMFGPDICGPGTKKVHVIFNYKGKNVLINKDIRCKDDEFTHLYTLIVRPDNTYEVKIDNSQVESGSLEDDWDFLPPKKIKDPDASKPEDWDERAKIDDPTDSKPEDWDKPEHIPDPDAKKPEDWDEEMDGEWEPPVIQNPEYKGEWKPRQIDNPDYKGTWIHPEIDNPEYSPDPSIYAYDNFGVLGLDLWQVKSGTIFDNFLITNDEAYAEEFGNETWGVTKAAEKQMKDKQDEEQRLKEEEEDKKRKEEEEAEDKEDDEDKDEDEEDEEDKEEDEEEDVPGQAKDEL
Protocol: Finally, in order to determine whether these neuroprotective peptides transduce their signaling through calreticulin, two complementing protocols were executed: i) Inhibition of peptide-calreticulin interaction using anti-calreticulin antibodies, or ii) blocking calreticulin expression with antisense oligonucleotides (as shown in FIG. 13C and FIG. 13D).
as §1

Substance: 5′-GGATAGCAGCATGGCGGGCCG-3′ (listed as DNA, chemistry not given here) [calreticulin antisense oligonucleotides, calreticulin antisense oligonucleotide synthesized by Operon]
- Inhibition of calreticulin cell surface expression (calreticulin [1]): inhibited cell surface expression
- Block of shared epitope peptide-triggered signaling / inhibitory effect on genoprotection (calreticulin [2]): blocked peptide-triggered signaling
